Reference: publication PMC7851449, “An extracellular lipase from Amycolatopsis mediterannei is a cutinase with plastic degrading activity” (Computational and Structural Biotechnology Journal, 2021)

Molecular target: T1, AML (Amycolatopsis mediterranei lipase) (Amycolatopsis mediterranei, UniProt A0A0H3DES9)
T1 construct: gene AMED_7492; recombinant, pET-49b(+), E. coli BL21(DE3) cytosol; glutathione agarose, tag cut off with PreScission protease
Test: p-nitrophenyl ester hydrolysis assay, relative activity
Format: biochemical
Settings: 50 mM Tris pH 7.5, 37 °C, 10 min, 20 mM substrate

T1 sequence (A0A0H3DES9 entry or part of it): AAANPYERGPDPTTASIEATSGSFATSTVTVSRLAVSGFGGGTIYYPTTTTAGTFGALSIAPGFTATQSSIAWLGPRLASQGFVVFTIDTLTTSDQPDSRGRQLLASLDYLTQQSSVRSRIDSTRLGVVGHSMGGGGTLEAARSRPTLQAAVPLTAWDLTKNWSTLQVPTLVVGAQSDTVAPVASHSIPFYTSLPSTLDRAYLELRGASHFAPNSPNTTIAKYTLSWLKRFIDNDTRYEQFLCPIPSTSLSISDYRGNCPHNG

Structure (SMILES)	relative activity (%) (reference substrate for relative activity)	relative activity (%)
CCCCCCCC(=O)Oc1ccc([N+](=O)[O-])cc1 [p-nitrophenyl octanoate]	relative activity (%) was calculated using p-nitrophenyl octanoate (C-8) as the reference, highest activity, substrate	–
CC(=O)Oc1ccc([N+](=O)[O-])cc1 [p-nitrophenyl acetate]	–	experimentally low activity of AML observed towards p-nitrophenyl acetate
